Data: US9708314B2, “Heterocyclic amide compound” (NISSAN CHEMICAL INDUSTRIES, LTD., priority 2013, dated 2017)

Legend:
Type in all cases: in vivo
[1] = tested on: Echinochloa oryzacola Vasing.; assay: Test Example 1: herbicidal activity, application before weed generation in submerged conditions; details: Application herbicide amount 320 g/ha; Seventeenth Table
Method in brief: (§1)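 Pre-emergence water-surface application under 4 cm flooding, same day as sowing, with rice transplanted at 2.5 leaf stage. Dose given as g/ha. Plants grown at 25° C. to 30° C. and rated three weeks later on a 0 (≤5%) to 5 (≥90%) herbicidal-ratio scale.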

[2] = tested on: Monochoria vaginalis; assay: as above; details: Application herbicide amount 320 g/ha; Seventeenth Table
Method in brief: as §1

[3] = tested on: Scirpus juncoides; assay: as above; details: Application herbicide amount 320 g/ha; Seventeenth Table
Method in brief: as §1

[4] = tested on: transplanted Oryza sativa; assay: Test Example 1: effect on crop, application before weed generation in submerged conditions; details: Application herbicide amount 320 g/ha; Seventeenth Table
Method in brief: as §1

[5] = tested on: Cyperus difformis; assay: Test Example 3: herbicidal effect by application to foliage (Wagner pot, water depth 0.1-0.5 cm); details: Nineteenth Table; application herbicide amount 320 g/ha
Method in brief: (§2)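 A small sprayer delivered the diluted emulsion uniformly to foliage at the chosen rate in g/ha, 14 days after sowing in Wagner pots held at 25–30 °C. Outcome: 0–5 herbicidal-ratio score read three weeks post-treatment.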

[6] = tested on: Echinochloa crus-galli var. crus-galli; assay: as above; details: Nineteenth Table; application herbicide amount 320 g/ha
Method in brief: as §2

[7] = tested on: Leptochloa chinensis; assay: as above; details: Nineteenth Table; application herbicide amount 320 g/ha
Method in brief: as §2

[8] = tested on: directly sowed Oryza sativa; assay: Test Example 3: effect on crop by application to foliage (Wagner pot, water depth 0.1-0.5 cm); details: Nineteenth Table; application herbicide amount 320 g/ha
Method in brief: as §2

[9] = tested on: Stellaria media; assay: Test Example 4: herbicidal effect by application to foliage (diluvial soil, plastic box); details: application to foliage, application herbicide amount 320 g/ha
Method in brief: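 Seeds sown in sterilized diluvial soil, covered ~1.5 cm, grown 14 days in greenhouse at 25° C. to 30° C. Emulsion formulation diluted in water to set rate (g/ha) and sprayed onto stems and leaves. Effect scored visually 3 weeks later on 0–5 scale (5 = ≥90% herbicidal ratio, 0 = ≤5%).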

## CSc1nnc2c(C(=O)Nc3nnc(C)o3)ccc(C(F)(F)F)n12 [1-018, N-(5-Methyl-1,3,4-oxadiazol-2-yl)-3-(methylthio)-5-(trifluoromethyl)-[1,2,4]triazol o[4,3-a]pyridine-8-carboxamide]
[1]
  A: Echinochloa oryzicola Vasing. (herbicidal effect grade): 1 (Herbicidal ratio of 5% or more and less than 20%)
[2]
  C: Monochoria vaginalis (herbicidal effect grade): 5 (Herbicidal ratio of 90% or more (almost completely withered))
[3]
  B: Scirpus juncoides (herbicidal effect grade): 3 (Herbicidal ratio of 40% or more and less than 70%)
[4]
  a: transplanted Oryza sativa (effect on crop grade): 0 (Herbicidal ratio of 5% or less (almost no effect))
[5]
  E (Cyperus difformis) herbicidal ratio grade: 4 (Herbicidal ratio of 70% or more and less than 90%)
[6]
  H (Echinochloa crus-galli var. crus-galli) herbicidal ratio grade: 4 (Herbicidal ratio of 70% or more and less than 90%)
[7]
  D (Leptochloa chinensis) herbicidal ratio grade: 4 (Herbicidal ratio of 70% or more and less than 90%)
[8]
  b (directly sowed Oryza sativa) effect on crop grade: 2 (Herbicidal ratio of 20% or more and less than 40%)
[9]
  P (Stellaria media) herbicidal effect: 4 (Herbicidal ratio of 70% or more and less than 90%)

## Cc1nnc(NC(=O)c2ccc(C(F)(F)F)n3c(CC(=O)O)nnc23)o1 [1-048]
[1]
  A: Echinochloa oryzicola Vasing. (herbicidal effect grade): 3 (Herbicidal ratio of 40% or more and less than 70%)
[2]
  C: Monochoria vaginalis (herbicidal effect grade): 0 (Herbicidal ratio of 5% or less (almost no effect))
[3]
  B: Scirpus juncoides (herbicidal effect grade): 0 (Herbicidal ratio of 5% or less (almost no effect))
[4]
  a: transplanted Oryza sativa (effect on crop grade): 1 (Herbicidal ratio of 5% or more and less than 20%)
[5]
  E (Cyperus difformis) herbicidal ratio grade: 3 (Herbicidal ratio of 40% or more and less than 70%)
[6]
  H (Echinochloa crus-galli var. crus-galli) herbicidal ratio grade: 5 (Herbicidal ratio of 90% or more (almost completely withered))
[7]
  D (Leptochloa chinensis) herbicidal ratio grade: 4 (Herbicidal ratio of 70% or more and less than 90%)
[8]
  b (directly sowed Oryza sativa) effect on crop grade: 0 (Herbicidal ratio of 5% or less (almost no effect))
[9]
  P (Stellaria media) herbicidal effect: 4 (Herbicidal ratio of 70% or more and less than 90%)

## Cc1nnc(NC(=O)c2ccc(C(F)(F)F)n3c(CSCC(F)(F)F)nnc23)o1 [1-031]
[1]
  A: Echinochloa oryzicola Vasing. (herbicidal effect grade): 4 (Herbicidal ratio of 70% or more and less than 90%)
[2]
  C: Monochoria vaginalis (herbicidal effect grade): 3 (Herbicidal ratio of 40% or more and less than 70%)
[3]
  B: Scirpus juncoides (herbicidal effect grade): 3 (Herbicidal ratio of 40% or more and less than 70%)
[4]
  a: transplanted Oryza sativa (effect on crop grade): 0 (Herbicidal ratio of 5% or less (almost no effect))
[5]
  E (Cyperus difformis) herbicidal ratio grade: 3 (Herbicidal ratio of 40% or more and less than 70%)
[6]
  H (Echinochloa crus-galli var. crus-galli) herbicidal ratio grade: 5 (Herbicidal ratio of 90% or more (almost completely withered))
[7]
  D (Leptochloa chinensis) herbicidal ratio grade: 4 (Herbicidal ratio of 70% or more and less than 90%)
[8]
  b (directly sowed Oryza sativa) effect on crop grade: 2 (Herbicidal ratio of 20% or more and less than 40%)
[9]
  P (Stellaria media) herbicidal effect: 4 (Herbicidal ratio of 70% or more and less than 90%)

## Cc1nnc(NC(=O)c2ccc(C(F)(F)F)n3c([S+]([O-])C(C)C)nnc23)o1 (stereo not drawn) [1-035]
[1]
  A: Echinochloa oryzicola Vasing. (herbicidal effect grade): 5 (Herbicidal ratio of 90% or more (almost completely withered))
[2]
  C: Monochoria vaginalis (herbicidal effect grade): 4 (Herbicidal ratio of 70% or more and less than 90%)
[3]
  B: Scirpus juncoides (herbicidal effect grade): 4 (Herbicidal ratio of 70% or more and less than 90%)
[4]
  a: transplanted Oryza sativa (effect on crop grade): 2 (Herbicidal ratio of 20% or more and less than 40%)
[5]
  E (Cyperus difformis) herbicidal ratio grade: 5 (Herbicidal ratio of 90% or more (almost completely withered))
[6]
  H (Echinochloa crus-galli var. crus-galli) herbicidal ratio grade: 5 (Herbicidal ratio of 90% or more (almost completely withered))
[7]
  D (Leptochloa chinensis) herbicidal ratio grade: 5 (Herbicidal ratio of 90% or more (almost completely withered))
[8]
  b (directly sowed Oryza sativa) effect on crop grade: 4 (Herbicidal ratio of 70% or more and less than 90%)
[9]
  P (Stellaria media) herbicidal effect: 5 (Herbicidal ratio of 90% or more (almost completely withered))

## COCCOCc1nnc2c(C(=O)Nc3nnc(C)o3)ccc(C(F)(F)F)n12 [1-019]
[1]
  A: Echinochloa oryzicola Vasing. (herbicidal effect grade): 5 (Herbicidal ratio of 90% or more (almost completely withered))
[2]
  C: Monochoria vaginalis (herbicidal effect grade): 4 (Herbicidal ratio of 70% or more and less than 90%)
[3]
  B: Scirpus juncoides (herbicidal effect grade): 3 (Herbicidal ratio of 40% or more and less than 70%)
[4]
  a: transplanted Oryza sativa (effect on crop grade): 2 (Herbicidal ratio of 20% or more and less than 40%)
[5]
  E (Cyperus difformis) herbicidal ratio grade: 5 (Herbicidal ratio of 90% or more (almost completely withered))
[6]
  H (Echinochloa crus-galli var. crus-galli) herbicidal ratio grade: 5 (Herbicidal ratio of 90% or more (almost completely withered))
[7]
  D (Leptochloa chinensis) herbicidal ratio grade: 5 (Herbicidal ratio of 90% or more (almost completely withered))
[8]
  b (directly sowed Oryza sativa) effect on crop grade: 4 (Herbicidal ratio of 70% or more and less than 90%)
[9]
  P (Stellaria media) herbicidal effect: 5 (Herbicidal ratio of 90% or more (almost completely withered))

## Cc1nnc(NC(=O)c2ccc(C(F)(F)F)n3c(C[S+](C)[O-])nnc23)o1 (stereo not drawn) [1-036]
[1]
  A: Echinochloa oryzicola Vasing. (herbicidal effect grade): 4 (Herbicidal ratio of 70% or more and less than 90%)
[2]
  C: Monochoria vaginalis (herbicidal effect grade): 3 (Herbicidal ratio of 40% or more and less than 70%)
[3]
  B: Scirpus juncoides (herbicidal effect grade): 3 (Herbicidal ratio of 40% or more and less than 70%)
[4]
  a: transplanted Oryza sativa (effect on crop grade): 4 (Herbicidal ratio of 70% or more and less than 90%)
[5]
  E (Cyperus difformis) herbicidal ratio grade: 5 (Herbicidal ratio of 90% or more (almost completely withered))
[6]
  H (Echinochloa crus-galli var. crus-galli) herbicidal ratio grade: 5 (Herbicidal ratio of 90% or more (almost completely withered))
[7]
  D (Leptochloa chinensis) herbicidal ratio grade: 5 (Herbicidal ratio of 90% or more (almost completely withered))
[8]
  b (directly sowed Oryza sativa) effect on crop grade: 4 (Herbicidal ratio of 70% or more and less than 90%)
[9]
  P (Stellaria media) herbicidal effect: 5 (Herbicidal ratio of 90% or more (almost completely withered))

## COCCc1nnc(NC(=O)c2ccc(C(F)(F)F)n3c(C(C)C)nnc23)o1 [1-052]
[1]
  A: Echinochloa oryzicola Vasing. (herbicidal effect grade): 3 (Herbicidal ratio of 40% or more and less than 70%)
[2]
  C: Monochoria vaginalis (herbicidal effect grade): 2 (Herbicidal ratio of 20% or more and less than 40%)
[3]
  B: Scirpus juncoides (herbicidal effect grade): 3 (Herbicidal ratio of 40% or more and less than 70%)
[4]
  a: transplanted Oryza sativa (effect on crop grade): 0 (Herbicidal ratio of 5% or less (almost no effect))
[5]
  E (Cyperus difformis) herbicidal ratio grade: 5 (Herbicidal ratio of 90% or more (almost completely withered))
[6]
  H (Echinochloa crus-galli var. crus-galli) herbicidal ratio grade: 4 (Herbicidal ratio of 70% or more and less than 90%)
[7]
  D (Leptochloa chinensis) herbicidal ratio grade: 5 (Herbicidal ratio of 90% or more (almost completely withered))
[8]
  b (directly sowed Oryza sativa) effect on crop grade: 0 (Herbicidal ratio of 5% or less (almost no effect))
[9]
  P (Stellaria media) herbicidal effect: 2 (Herbicidal ratio of 20% or more and less than 40%)

## Cc1nnc(NC(=O)c2ccc(C(F)(F)F)n3c(S(C)(=O)=O)nnc23)o1 [1-040]
[1]
  A: Echinochloa oryzicola Vasing. (herbicidal effect grade): 3 (Herbicidal ratio of 40% or more and less than 70%)
[2]
  C: Monochoria vaginalis (herbicidal effect grade): 3 (Herbicidal ratio of 40% or more and less than 70%)
[3]
  B: Scirpus juncoides (herbicidal effect grade): 3 (Herbicidal ratio of 40% or more and less than 70%)
[4]
  a: transplanted Oryza sativa (effect on crop grade): 1 (Herbicidal ratio of 5% or more and less than 20%)
[5]
  E (Cyperus difformis) herbicidal ratio grade: 4 (Herbicidal ratio of 70% or more and less than 90%)
[6]
  H (Echinochloa crus-galli var. crus-galli) herbicidal ratio grade: 4 (Herbicidal ratio of 70% or more and less than 90%)
[7]
  D (Leptochloa chinensis) herbicidal ratio grade: 5 (Herbicidal ratio of 90% or more (almost completely withered))
[8]
  b (directly sowed Oryza sativa) effect on crop grade: 3 (Herbicidal ratio of 40% or more and less than 70%)
[9]
  P (Stellaria media) herbicidal effect: 5 (Herbicidal ratio of 90% or more (almost completely withered))
